Laboratory results reported in patent US20230085307A1, “PYRIDAZINONE COMPOUND AND HERBICIDE” (NISSAN CHEMICAL CORPORATION, priority 2019, published 2023).

Tests used:
[1] = system: Japanese bulrush; experiment: Test Example 2: herbicidal activity, application during weed generation under submerged conditions (Table 17, symbol B); assay type: in vivo, Japanese bulrush (Schoenoplectus juncoides); settings: AAH 320 g/ha; application during weed generation, submerged conditions
Outline: (§1)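 3-wk visual-criteria score after one water-surface dose. Emulsion formulation, water-diluted to set rate; applied at 1–2 leaf stage; alluvial soil, 4 cm standing water; seeds co-sown; greenhouse 25–30° C.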

[2] = system: velvetleaf; experiment: Test Example 4: herbicidal effect by soil treatment (Table 19, symbol M); assay type: in vivo, velvetleaf (Abutilon theophrasti); settings: amount of applied herbicide 320 g/ha
Outline: (§2)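 Scoring uses the grading scale of an earlier test, three weeks post-application. Treatment consists of spraying a diluted emulsion formulation across the surface of sterilized diluvial soil in which seeds are buried near 1.5 cm deep; boxes are kept in a greenhouse between 25° C. and 30° C.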

[3] = system: green foxtail; experiment: Test Example 4: herbicidal effect by soil treatment (Table 19, symbol G); assay type: in vivo, green foxtail (Setaria viridis); settings: amount of applied herbicide 320 g/ha
Outline: as §2

[4] = system: oval-leafed pondweed; experiment: Test Example 2: herbicidal activity, application during weed generation under submerged conditions (Table 17, symbol C); assay type: in vivo, oval-leafed pondweed (Monochoria vaginalis); settings: AAH 320 g/ha; application during weed generation, submerged conditions
Outline: as §1

[5] = system: barnyard grass; experiment: Test Example 5: herbicidal effect by foliage application, plastic box (Table 20, symbol H); assay type: in vivo, barnyard grass (Echinochloa crus-galli); settings: 320 g/ha, foliage application after 14-day growth, evaluated three weeks after application
Outline: (§3)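 Post-emergence foliar test in sterilized diluvial soil. Compound applied as water-diluted emulsion at a predetermined rate to 14-day-old plants; evaluation at three weeks.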

[6] = system: redroot pigweed; experiment: Test Example 4: herbicidal effect by soil treatment (Table 19, symbol N); assay type: in vivo, redroot pigweed (Amaranthus retroflexus); settings: amount of applied herbicide 320 g/ha
Outline: as §2

[7] = system: redroot pigweed; experiment: Test Example 5: herbicidal effect by foliage application, plastic box (Table 20, symbol N); assay type: in vivo, redroot pigweed (Amaranthus retroflexus); settings: 320 g/ha, foliage application after 14-day growth, evaluated three weeks after application
Outline: as §3

[8] = system: blackgrass; experiment: Test Example 4: herbicidal effect by soil treatment (Table 19, symbol J); assay type: in vivo, blackgrass (Alopecurus myosuroides); settings: amount of applied herbicide 320 g/ha
Outline: as §2

[9] = system: wild oat; experiment: Test Example 4: herbicidal effect by soil treatment (Table 19, symbol I); assay type: in vivo, wild oat (Avena fatua); settings: amount of applied herbicide 320 g/ha
Outline: as §2

[10] = system: Japanese bulrush; experiment: Test Example 1: herbicidal activity, application before weed generation under submerged conditions (Table 16, symbol B); assay type: in vivo, Japanese bulrush (Schoenoplectus juncoides); settings: amount of applied herbicide 320 g/ha
Outline: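 Alluvial soil was flooded to 4 cm depth, weed seeds were sown mixed and 2.5-leaf rice seedlings were transplanted. On sowing day, the compound's emulsion, diluted in water to a set dose, was applied to the water surface. Plants grew at 25–30 °C and were scored 0–5 after three weeks.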

[11] = system: chickweed; experiment: Test Example 5: herbicidal effect by foliage application, plastic box (Table 20, symbol P); assay type: in vivo, common chickweed (Stellaria media); settings: 320 g/ha, foliage application after 14-day growth, evaluated three weeks after application
Outline: as §3

[12] = system: late watergrass; experiment: Test Example 2: herbicidal activity, application during weed generation under submerged conditions (Table 17, symbol A); assay type: in vivo, late watergrass (Echinochloa oryzicola); settings: AAH 320 g/ha; application during weed generation, submerged conditions
Outline: as §1

[13] = system: chickweed; experiment: Test Example 4: herbicidal effect by soil treatment (Table 19, symbol P); assay type: in vivo, common chickweed (Stellaria media); settings: amount of applied herbicide 320 g/ha
Outline: as §2

[14] = system: rice flat sedge; experiment: Test Example 3: herbicidal effect by foliage application, Wagner pot (Table 18, symbol E); assay type: in vivo, rice flat sedge (Cyperus iria); settings: 320 g/ha
Outline: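 Plants were sown in alluvial soil held under 0.1–0.5 cm standing water and grown 14 days in a greenhouse at 25–30 °C. An emulsifiable formulation, water-diluted to the set dose, was then sprayed onto the foliage, and effects were scored three weeks later using previously defined criteria.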

[15] = system: blackgrass; experiment: Test Example 5: herbicidal effect by foliage application, plastic box (Table 20, symbol J); assay type: in vivo, blackgrass (Alopecurus myosuroides); settings: 320 g/ha, foliage application after 14-day growth, evaluated three weeks after application
Outline: as §3

[16] = system: wild oat; experiment: Test Example 5: herbicidal effect by foliage application, plastic box (Table 20, symbol I); assay type: in vivo, wild oat (Avena fatua); settings: 320 g/ha, foliage application after 14-day growth, evaluated three weeks after application
Outline: as §3

[17] = system: southern crabgrass; experiment: Test Example 4: herbicidal effect by soil treatment (Table 19, symbol F); assay type: in vivo, southern crabgrass (Digitaria ciliaris); settings: amount of applied herbicide 320 g/ha
Outline: as §2

## C=C(C)C(=O)Oc1c(C)nn(C)c(=O)c1-c1c(-c2ccccc2OC)sc2cc(OC)ccc12 [3-155]
[1]
  herbicidal effect rating, B: Japanese bulrush: 5 (Herbicidal rate of 90% or more (almost completely withered))
[2]
  Herbicidal effect by soil treatment, M: velvetleaf: 0 (Herbicidal rate of 5% or less (almost no effect))
[3]
  Herbicidal effect by soil treatment, G: green foxtail: 0 (Herbicidal rate of 5% or less (almost no effect))
[4]
  herbicidal effect rating, C: oval-leafed pondweed: 5 (Herbicidal rate of 90% or more (almost completely withered))
[5]
  herbicidal effect on H: barnyard grass (evaluation grade 0-5): 5 (Herbicidal rate of 90% or more (almost completely withered))
[6]
  Herbicidal effect by soil treatment, N: redroot pigweed: 4 (Herbicidal rate of 70% or more and less than 90%)
[7]
  herbicidal effect on N: redroot pigweed (evaluation grade 0-5): 5 (Herbicidal rate of 90% or more (almost completely withered))
[8]
  Herbicidal effect by soil treatment, J: blackgrass: 4 (Herbicidal rate of 70% or more and less than 90%)
[9]
  Herbicidal effect by soil treatment, I: wild oat: 0 (Herbicidal rate of 5% or less (almost no effect))
[10]
  Herbicidal effect, B: Japanese bulrush: 5 (Herbicidal rate of 90% or more (almost completely withered))
[11]
  herbicidal effect on P: chickweed (evaluation grade 0-5): 5 (Herbicidal rate of 90% or more (almost completely withered))
[12]
  herbicidal effect rating, A: late watergrass: 5 (Herbicidal rate of 90% or more (almost completely withered))
[13]
  Herbicidal effect by soil treatment, P: chickweed: 1 (Herbicidal rate of 5% or more and less than 20%)
[14]
  herbicidal effect on rice flat sedge (E): 4 (Herbicidal rate of 70% or more and less than 90%)
[15]
  herbicidal effect on J: blackgrass (evaluation grade 0-5): 5 (Herbicidal rate of 90% or more (almost completely withered))
[16]
  herbicidal effect on I: wild oat (evaluation grade 0-5): 3 (Herbicidal rate of 40% or more and less than 70%)
[17]
  Herbicidal effect by soil treatment, F: southern crabgrass: 0 (Herbicidal rate of 5% or less (almost no effect))

## COc1ccc2c(-c3c(OC(=O)c4ccccc4OC)c(C)nn(C)c3=O)c(-c3ccccc3OC)sc2c1 [3-158]
[1]
  herbicidal effect rating, B: Japanese bulrush: 3 (Herbicidal rate of 40% or more and less than 70%)
[2]
  Herbicidal effect by soil treatment, M: velvetleaf: 0 (Herbicidal rate of 5% or less (almost no effect))
[3]
  Herbicidal effect by soil treatment, G: green foxtail: 0 (Herbicidal rate of 5% or less (almost no effect))
[4]
  herbicidal effect rating, C: oval-leafed pondweed: 5 (Herbicidal rate of 90% or more (almost completely withered))
[5]
  herbicidal effect on H: barnyard grass (evaluation grade 0-5): 5 (Herbicidal rate of 90% or more (almost completely withered))
[6]
  Herbicidal effect by soil treatment, N: redroot pigweed: 2 (Herbicidal rate of 20% or more and less than 40%)
[7]
  herbicidal effect on N: redroot pigweed (evaluation grade 0-5): 5 (Herbicidal rate of 90% or more (almost completely withered))
[8]
  Herbicidal effect by soil treatment, J: blackgrass: 0 (Herbicidal rate of 5% or less (almost no effect))
[9]
  Herbicidal effect by soil treatment, I: wild oat: 0 (Herbicidal rate of 5% or less (almost no effect))
[10]
  Herbicidal effect, B: Japanese bulrush: 5 (Herbicidal rate of 90% or more (almost completely withered))
[11]
  herbicidal effect on P: chickweed (evaluation grade 0-5): 5 (Herbicidal rate of 90% or more (almost completely withered))
[12]
  herbicidal effect rating, A: late watergrass: 4 (Herbicidal rate of 70% or more and less than 90%)
[13]
  Herbicidal effect by soil treatment, P: chickweed: 1 (Herbicidal rate of 5% or more and less than 20%)
[14]
  herbicidal effect on rice flat sedge (E): 4 (Herbicidal rate of 70% or more and less than 90%)
[15]
  herbicidal effect on J: blackgrass (evaluation grade 0-5): 5 (Herbicidal rate of 90% or more (almost completely withered))
[16]
  herbicidal effect on I: wild oat (evaluation grade 0-5): 3 (Herbicidal rate of 40% or more and less than 70%)
[17]
  Herbicidal effect by soil treatment, F: southern crabgrass: 0 (Herbicidal rate of 5% or less (almost no effect))
